# “Also recorded” adds a separate entry of the source.
# Tests used:
# [1] = test system: LLC-HM primary tumor; assay: LLC-HM primary tumor model, preclinical studies in mice; format: in vivo
# [2] = test system: HEY ovarian, SK-MEL-1 melanoma and ACHN renal carcinoma cell lines; assay: Murine dermis model, peritumoral vessels; format: in vivo
# [3] = Phase I clinical trials, tolerability; format: in vivo, human; details: doses up to 300 mg/m^2 administered IV or SC
# [4] = Phase II study RPI0003 (IFL + ANGIOZYME), adverse events; format: in vivo, human
# Method: Beginning on study day 4, patients received daily doses of 100 mg/m^2 ANGIOZYME by subcutaneous injection. Unidimensional tumor measurements were obtained from CT scans after 12 and 24 weeks of treatment. Responses were then confirmed 4 weeks following initial response. ANGIOZYME treatment continued until disease progression.
# Adverse event reporting for RPI0003 is ongoing for the 6 patients continuing to receive ANGIOZYME in the maintenance protocolis. […] One patient has discontinued RPI0003 due to an ISR.
# Of the MedDRA organ system classes most likely to be affected by antiangiogenic drugs, only the vascular complications (DVT/PE) may appear in excess in this study. […] This observation was communicated to the FDA in September, 2002. Patients continue in the maintenance trial with all PEs and DVTs being classified as serious and ANGIOZYME-related to ensure complete reporting of these events.
# [5] = test system: human KM12 colorectal cancer xenograft; assay: Human KM12 colorectal cancer xenograft, metastasis; format: in vivo, mice
# Excerpt: (§1) A reduction of metastasis in a human KM12 colorectal cancer xenograft and reduced metastasis and increase in survival in the murine mammary (4T1) model were also observed with ANGIOZYME treatment.
# [6] = 13-week toxicology studies; format: in vivo; details: doses up to 300 mg/m^2/d
# [7] = test system: late-stage metastatic breast cancer; assay: Phase II monotherapy trial RPI0001, tumor response; format: in vivo, human
# Method: (§2) In a Phase II monotherapy ANGIOZYME trial, 45 late-stage metastatic breast cancer patients who had failed multiple prior treatments received 100 mg/m^2 ANGIOZYME by daily SC injection. Due of the critical nature of the disease, most progressed and discontinued drug at the first evaluation (week 6). […] Clinical and biomarker results are summarized.
# (§3) In RPI0001, ANGIOZYME monotherapy decreased sVEGFR-1 levels in the metastatic breast cancer setting, although there were no responses in this late-stage disease population.
# [8] = Preclinical absorption after subcutaneous administration; format: in vivo; details: subcutaneous (SC) administration
# Excerpt: as §1
# [9] = test system: murine mammary (4T1) model; assay: Murine mammary (4T1) model; format: in vivo
# Excerpt: as §1
# [10] = test system: sVEGFR-1; assay: Phase II monotherapy trial RPI0001, sVEGFR-1 level; format: in vivo, human; details: monotherapy 100 mg/m^2 daily SC, metastatic breast cancer patients, by week 6
# Method: as §2, §3
# [11] = test system: metastatic colorectal cancer; details: cited from earlier work
substance,measurement,setting,value
"ANGIOZYME: stabilized ribozyme that targets the pre-mRNA of vascular endothelial growth factor receptor-1 (VEGFR-1); structure in FIG. 8 (GAGUUGCUGAUGAGGCCGAAAGGCCGAAAGUCUG; stabilized ribozyme, chemical modifications not given here)",growth of the LLC-HM primary tumor,[1],inhibited the growth of the LLC-HM primary tumor in a dose-dependent manner
same,mean vascular density in tumor sections,[1]; LLC-HM model,decreased
same,number of lung metastases,[1]; LLC-HM model,reduced
same,interaction with interferon treatment,[2],synergistic
same,number of peritumoral vessels,"[2]; HEY, SK-MEL-1, ACHN cell lines",reduced
same,tolerability,[3],well tolerated
same,patients discontinued due to an injection site reaction (ISR),[4]; RPI0003,One
same,tolerability,"[4]; RPI0003, daily SC injection in combination with IFL",well tolerated
same,toxicity added to the chemotherapy,"[4]; RPI0003, with the possible exception of increased vascular complications",added no toxicity
same,most frequent adverse experiences,[4]; RPI0003 and all other ANGIOZYME studies,injection site reactions
same,metastasis,[5],reduction
same,tolerability,[6],well tolerated
same,tumor responses,[7],no responses
same,absorption,[8],well absorbed
same,metastasis,[9],reduced
same,survival,[9],increase
same,change in sVEGFR-1,[10],significant decrease; also recorded: decreased
irinotecan/5-fluorouracil/leucovorin [IFL],response rate,"[11]; IFL alone, patients who received IFL, good performance status, CT at 12 or 24 weeks",~40%
same,Median time to progression (TTP),[11]; IFL arm of the Pharmacia study,> 7.0 months
same,At least Stable at Week 12,"[11]; N = 192, Pharmacia 0038",83%
same,At least Stable at Week 24,"[11]; N = 192, Pharmacia 0038",80%
same,Best Overall Response (Week 24),"[11]; N = 192, Pharmacia 0038",37%
same,"Best Overall Response, Confirmed at Week 12","[11]; N = 192, Pharmacia 0038",35%
same,"Best Overall Response, Unconfirmed at Week 12","[11]; N = 192, Pharmacia 0038",48%
same,Discontinued by Week 12 Due to Disease Progression,"[11]; N = 192, Pharmacia 0038",12%

# Reference: US20030232400A1, “Methods of screening subjects for expression of soluble receptors of vascular endothelial growth factor (VEGF) for use in managing treatment and determining prognostic outcome” (priority 2002, published 2003)
